In patent US20240174671A1, “New 2,3-Dihydro-1H-pyrrolo[3,2-b]pyridine Derivatives as Sigma Ligands” (ACONDICIONAMIENTO TARRASENSE, priority 2021, published 2024):
Like-named read-outs stand apart in the source and are kept apart here.

What was measured:
human σ2/TMEM97 receptor = target: T1, human σ2/TMEM97 receptor (Homo sapiens, UniProt Q5BJF2); test: Binding assay to human σ2/TMEM97 receptor ([3H]-DTG); conditions: transfected HEK-293 membranes, 10 nM [3H]-DTG, 25° C., 120 minutes; read-out: Binding σ-[…] (binding to σ2-receptor expressed as Ki)
T1 construct: expressed in transfected cells; host or cells: HEK-293
T1 sequence (Q5BJF2 whole entry): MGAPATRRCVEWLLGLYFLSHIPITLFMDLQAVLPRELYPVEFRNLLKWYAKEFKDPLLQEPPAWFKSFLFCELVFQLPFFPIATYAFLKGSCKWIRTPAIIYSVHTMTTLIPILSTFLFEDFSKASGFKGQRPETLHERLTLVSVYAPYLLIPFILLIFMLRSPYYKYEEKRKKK
Procedure: Binding Assay to Human σ2/TMEM97 Receptor.
Transfected HEK-293 membranes (15 μg) were incubated with 10 nM [^3H]-1,3-Di-o-tolylguanidine (DTG) in assay buffer containing Tris-HCl 50 mM at pH 8.0. NSB (non-specific binding) was measured by adding 10 μM haloperidol. The binding of the test compound was measured at either one concentration (% inhibition at 1 or 10 µM) or five different concentrations to determine affinity values (Ki). Plates were incubated at 25° C. for 120 minutes. After the incubation period, the reaction mix was transferred to MultiScreen HTS, FC plates (Millipore), filtered and washed 3 times with ice-cold 10 mM Tris-HCL (pH 8.0). Filters were dried and counted at approximately 40% efficiency in a MicroBeta scintillation counter (Perkin-Elmer) using EcoScint liquid scintillation cocktail.

human σ1 receptor = target: T2, human σ1 receptor (Homo sapiens, UniProt Q99720); test: Human σ1 receptor radioligand assay ([3H](+)-pentazocine); format: binding
T2 construct: expressed in transfected cells; host or cells: HEK-293
T2 sequence (Q99720 whole entry): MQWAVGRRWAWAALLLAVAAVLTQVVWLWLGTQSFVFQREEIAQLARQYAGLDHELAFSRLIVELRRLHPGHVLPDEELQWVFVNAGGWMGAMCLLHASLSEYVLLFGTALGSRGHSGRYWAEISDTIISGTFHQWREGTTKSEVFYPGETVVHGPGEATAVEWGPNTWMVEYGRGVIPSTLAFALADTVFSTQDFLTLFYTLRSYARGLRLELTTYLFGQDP
Procedure: Human σ1 Receptor Radioligand Assay
NBS (non-specific binding) was measured by adding 10 μM haloperidol. The binding of the test compound was measured at either one concentration (% inhibition at 1 or 10 µM) or five different concentrations to determine affinity values (Ki). Plates were incubated at 37° C. for 120 minutes. After the incubation period, the reaction mix was then transferred to MultiScreen HTS, FC plates (Millipore), filtered and plates were washed 3 times with ice-cold 10 mM Tris-HCL (pH7.4). Filters were dried and counted at approximately 40% efficiency in a MicroBeta scintillation counter (Perkin-Elmer) using EcoScint liquid scintillation cocktail.

[1] = transfected HEK-293 membranes, 5 nM [3H](+)-pentazocine, 37° C., 120 minutes, read-out: Binding σ-[…] (binding to σ1-receptor expressed as Ki)

For `CN(Cc1ccccc1)[C@H]1CC[C@H](NC(=O)N2CC(C)(C)c3ncccc32)CC1` [Example 71, N-((1r,4r)-4-(benzyl(methyl)amino)cyclohexyl)-3,3-dimethyl-2,3-dihydro-1H-pyrrolo[3,2-b]pyridine-1-carboxamide], the Ki (human σ2/TMEM97 receptor) was < 100 nM and the Ki (human σ1 receptor; [1]) was > 1000 nM.

In the case of `Cc1ccc2c(n1)C(C)(C)CN2C(=O)C1CN(Cc2ccc(F)cc2)C1` [Example 133, (1-(4-fluorobenzyl)azetidin-3-yl)(3,3,5-trimethyl-2,3-dihydro-1H-pyrrolo[3,2-b]pyridin-1-yl)methanone], the Ki (human σ2/TMEM97 receptor) is reported as > 1000 nM and the Ki (human σ1 receptor; [1]) is reported as < 100 nM.

In the case of `Cc1ccc2c(n1)C(C)(C)CN2C(=O)[C@H]1CC[C@H](NCc2ccccc2F)CC1` [Example 188, ((1r,4r)-4-((2-fluorobenzyl)amino)cyclohexyl)(3,3,5-trimethyl-2,3-dihydro-1H-pyrrolo[3,2-b]pyridin-1-yl)methanone], the Ki (human σ2/TMEM97 receptor) is reported as < 100 nM and the Ki (human σ1 receptor; [1]) is reported as < 100 nM.

`CN(Cc1ccccc1F)[C@H]1CC[C@H](C(=O)N2CC(C)(C)c3ncccc32)CC1` [Example 175, (3,3-dimethyl-2,3-dihydro-1H-pyrrolo[3,2-b]pyridin-1-yl)((1r,4r)-4-((2-fluorobenzyl)(methyl)amino)cyclohexyl)methanone] was tested, and the Ki (human σ2/TMEM97 receptor) was < 100 nM and the Ki (human σ1 receptor; [1]) was < 100 nM.

In the case of `CCN[C@@H](CNC(=O)N1CC(C)(C)c2nc(C)ccc21)c1ccccc1` [Example 113, (R)—N-(2-(ethylamino)-2-phenylethyl)-3,3,5-trimethyl-2,3-dihydro-1H-pyrrolo[3,2-b]pyridine-1-carboxamide], the Ki (human σ2/TMEM97 receptor) is reported as > 1000 nM and the Ki (human σ1 receptor) is reported as 100 to 500 nM.

`Cc1ccc2c(n1)C(C)(C)CN2C(=O)NC1CCN(Cc2ccc(F)c(F)c2)CC1` [Example 44, N-(1-(3,4-difluorobenzyl)piperidin-4-yl)-3,3,5-trimethyl-2,3-dihydro-1H-pyrrolo[3,2-b]pyridine-1-carboxamide] was tested, and the Ki (human σ2/TMEM97 receptor) was > 1000 nM and the Ki (human σ1 receptor; [1]) was < 100 nM.

For `Cc1ccc2c(n1)C(C)(C)CN2C(=O)N1CCC(N(C)CCc2ccccc2)CC1` [Example 50, (4-(methyl(phenethyl)amino)piperidin-1-yl)(3,3,5-trimethyl-2,3-dihydro-1H-pyrrolo[3,2-b]pyridin-1-yl)methanone], the Ki (human σ2/TMEM97 receptor) was < 100 nM and the Ki (human σ1 receptor; [1]) was 100 to 500 nM.

`COc1cccc([C@H](CNC(=O)N2CC(C)(C)c3nc(C)ccc32)N(C)C)c1` [Example 35, (R)—N-(2-(dimethylamino)-2-(3-methoxyphenyl)ethyl)-3,3,5-trimethyl-2,3-dihydro-1H-pyrrolo[3,2-b]pyridine-1-carboxamide] was tested, and the Ki (human σ2/TMEM97 receptor) was > 1000 nM and the Ki (human σ1 receptor; [1]) was 100 to 500 nM.

For `Cc1ccc2c(n1)C(C)(C)CN2C(=O)N1CCC2(CCN(CC3CCOCC3)CC2)CC1` [Example 161, (9-((tetrahydro-2H-pyran-4-yl)methyl)-3,9-diazaspiro[5.5]undecan-3-yl)(3,3,5-trimethyl-2,3-dihydro-1H-pyrrolo[3,2-b]pyridin-1-yl)methanone], the Ki (human σ2/TMEM97 receptor) was < 100 nM and the Ki (human σ1 receptor; [1]) was 100 to 500 nM.

`CC1(C)CN(C(=O)N2CCC3(CCN(Cc4ccc(F)cn4)CC3)C2)c2cccnc21` [Example 154, (3,3-dimethyl-2,3-dihydro-1H-pyrrolo[3,2-b]pyridin-1-yl)(8-((5-fluoropyridin-2-yl)methyl)-2,8-diazaspiro[4.5]decan-2-yl)methanone] was tested, and the Ki (human σ2/TMEM97 receptor) was < 100 nM and the Ki (human σ1 receptor; [1]) was 100 to 500 nM.

With `Cc1ccc2c(n1)C(C)(C)CN2C(=O)NC[C@H](Cc1ccccc1)N(C)C` [Example 12, (S)—N-(2-(dimethylamino)-3-phenylpropyl)-3,3,5-trimethyl-2,3-dihydro-1H-pyrrolo[3,2-b]pyridine-1-carboxamide] the Ki (human σ2/TMEM97 receptor) was > 1000 nM and the Ki (human σ1 receptor) was < 100 nM.

`CN(C)C(CNC(=O)N1CC(C)(C)c2nc(C(F)(F)F)ccc21)c1ccccc1` (centres unmarked) [Example 3, N-(2-(dimethylamino)-2-phenylethyl)-3,3-dimethyl-5-(trifluoromethyl)-2,3-dihydro-1H-pyrrolo[3,2-b]pyridine-1-carboxamide] was tested, and the Ki (human σ2/TMEM97 receptor) was > 1000 nM and the Ki (human σ1 receptor; [1]) was 100 to 500 nM.

In the case of `Cc1ccc2c(n1)C(C)(C)CN2C(=O)[C@H]1CC[C@H](N(C)Cc2ccnc(C(F)(F)F)c2)CC1` [Example 177, ((1r,4r)-4-(methyl((2-(trifluoromethyl)pyridin-4-yl)methyl)amino)cyclohexyl)(3,3,5-trimethyl-2,3-dihydro-1H-pyrrolo[3,2-b]pyridin-1-yl)methanone], the Ki (human σ2/TMEM97 receptor) is reported as < 100 nM and the Ki (human σ1 receptor; [1]) is reported as 100 to 500 nM.

`CN(C)[C@@H](CNC(=O)N1CC(C)(C)c2ncccc21)c1ccccc1` [Example 5, (R)—N-(2-(dimethylamino)-2-phenylethyl)-3,3-dimethyl-2,3-dihydro-1H-pyrrolo[3,2-b]pyridine-1-carboxamide] was tested, and the Ki (human σ2/TMEM97 receptor) was > 1000 nM and the Ki (human σ1 receptor; [1]) was 100 to 500 nM.

For `CC1(C)CN(C(=O)NCC2CCN(Cc3ccccc3)CC2)c2cccnc21` [Example 69, N-((1-benzylpiperidin-4-yl)methyl)-3,3-dimethyl-2,3-dihydro-1H-pyrrolo[3,2-b]pyridine-1-carboxamide], the Ki (human σ2/TMEM97 receptor) was 100 to 500 nM and the Ki (human σ1 receptor; [1]) was 100 to 500 nM.

`Cc1ccc2c(n1)C(C)(C)CN2C(=O)N1CCC2(CCN(C(C)c3ccccc3)CC2)C1` (centres unmarked) [Example 96, (8-(1-phenylethyl)-2,8-diazaspiro[4.5]decan-2-yl)(3,3,5-trimethyl-2,3-dihydro-1H-pyrrolo[3,2-b]pyridin-1-yl)methanone] showed a Ki (human σ2/TMEM97 receptor) of 100 to 500 nM and a Ki (human σ1 receptor; [1]) of 100 to 500 nM.

`O=C(N1CCC[C@H](NCCc2ccccc2)C1)N1CCc2ncccc21` [Example 101, (S)-(2,3-dihydro-1H-pyrrolo[3,2-b]pyridin-1-yl)(3-(phenethylamino)piperidin-1-yl)methanone] was tested, and the Ki (human σ2/TMEM97 receptor) was 100 to 500 nM and the Ki (human σ1 receptor; [1]) was > 1000 nM.

`Cc1ccc2c(n1)C(C)(C)CN2C(=O)NC[C@@H](c1ccccc1)N(C)C` [Example 4, (R)—N-(2-(dimethylamino)-2-phenylethyl)-3,3,5-trimethyl-2,3-dihydro-1H-pyrrolo[3,2-b]pyridine-1-carboxamide] was tested, and the Ki (human σ2/TMEM97 receptor) was > 1000 nM and the Ki (human σ1 receptor) was < 100 nM.

In the case of `CC1(C)CN(C(=O)N2CCC3(CCN(Cc4c(F)cccc4F)CC3)C2)c2cccnc21` [Example 150, (8-(2,6-difluorobenzyl)-2,8-diazaspiro[4.5]decan-2-yl)(3,3-dimethyl-2,3-dihydro-1H-pyrrolo[3,2-b]pyridin-1-yl)methanone], the Ki (human σ2/TMEM97 receptor) is reported as 100 to 500 nM and the Ki (human σ1 receptor; [1]) is reported as > 1000 nM.

For `Cc1ccc2c(n1)C(C)(C)CN2C(=O)N1CCC2(CCN(Cc3ccccc3)C2)CC1` [Example 38, (2-benzyl-2,8-diazaspiro[4.5]decan-8-yl)(3,3,5-trimethyl-2,3-dihydro-1H-pyrrolo[3,2-b]pyridin-1-yl)methanone], the Ki (human σ2/TMEM97 receptor) was < 100 nM and the Ki (human σ1 receptor; [1]) was 100 to 500 nM.

`Cc1ccc2c(n1)C(C)(C)CN2C(=O)N1CCC2(CCN(Cc3ccccc3)CC2)C1` [Example 80, (8-benzyl-2,8-diazaspiro[4.5]decan-2-yl)(3,3,5-trimethyl-2,3-dihydro-1H-pyrrolo[3,2-b]pyridin-1-yl)methanone] was tested, and the Ki (human σ2/TMEM97 receptor) was < 100 nM and the Ki (human σ1 receptor; [1]) was 100 to 500 nM.

With `CC1(C)CN(C(=O)N2CCC3(CCN(Cc4ccccc4)CC3)C2)c2cccnc21` [Example 89, (8-benzyl-2,8-diazaspiro[4.5]decan-2-yl)(3,3-dimethyl-2,3-dihydro-1H-pyrrolo[3,2-b]pyridin-1-yl)methanone] the Ki (human σ2/TMEM97 receptor) was < 100 nM and the Ki (human σ1 receptor; [1]) was < 100 nM.

In the case of `CN(Cc1ccc(C#N)cc1)C1CCN(C(=O)N2CC(C)(C)c3ncccc32)CC1` [Example 84, 4-(((1-(3,3-dimethyl-2,3-dihydro-1H-pyrrolo[3,2-b]pyridine-1-carbonyl)piperidin-4-yl)(methyl)amino)methyl)benzonitrile], the Ki (human σ2/TMEM97 receptor) is reported as < 100 nM and the Ki (human σ1 receptor; [1]) is reported as 100 to 500 nM.

`Cc1ccc2c(n1)C(C)(C)CN2C(=O)NC1CCN(CCC(C)C)CC1` [Example 25, N-(1-isopentylpiperidin-4-yl)-3,3,5-trimethyl-2,3-dihydro-1H-pyrrolo[3,2-b]pyridine-1-carboxamide] was tested, and the Ki (human σ2/TMEM97 receptor) was 100 to 500 nM and the Ki (human σ1 receptor; [1]) was < 100 nM.

In the case of `CC1(C)CN(C(=O)N2CC3(CCN(Cc4ccccc4)CC3)C2)c2cccnc21` [Example 159, (7-benzyl-2,7-diazaspiro[3.5]nonan-2-yl)(3,3-dimethyl-2,3-dihydro-1H-pyrrolo[3,2-b]pyridin-1-yl)methanone], the Ki (human σ2/TMEM97 receptor) is reported as 100 to 500 nM and the Ki (human σ1 receptor; [1]) is reported as < 100 nM.

For `Cc1ccc2c(n1)C(C)(C)CN2C(=O)N1CCC(N(C)Cc2ccccc2)CC1` [Example 11, (4-(benzyl(methyl)amino)piperidin-1-yl)(3,3,5-trimethyl-2,3-dihydro-1H-pyrrolo[3,2-b]pyridin-1-yl)methanone], the Ki (human σ2/TMEM97 receptor) was < 100 nM and the Ki (human σ1 receptor; [1]) was 100 to 500 nM.

For `COc1ccc2c(n1)C(C)(C)CN2C(=O)NC[C@@H](c1ccccc1)N(C)C` [Example 17, (R)—N-(2-(dimethylamino)-2-phenylethyl)-5-methoxy-3,3-dimethyl-2,3-dihydro-1H-pyrrolo[3,2-b]pyridine-1-carboxamide], the Ki (human σ2/TMEM97 receptor) was > 1000 nM and the Ki (human σ1 receptor; [1]) was < 100 nM.

In the case of `CC1(C)CN(C(=O)N2CCC3(CCN(Cc4cccc(F)c4)CC3)C2)c2cccnc21` [Example 152, (3,3-dimethyl-2,3-dihydro-1H-pyrrolo[3,2-b]pyridin-1-yl)(8-(3-fluorobenzyl)-2,8-diazaspiro[4.5]decan-2-yl)methanone], the Ki (human σ2/TMEM97 receptor) is reported as < 100 nM and the Ki (human σ1 receptor; [1]) is reported as < 100 nM.
